Laboratory results as given in patent publication US20250169501A1, “Metal(loid)-Based Compositions and Uses Thereof Against Bacterial Biofilms” (CCREST Laboratories Inc., priority 2022, published 2025).

test system: P. aeruginosa PAO1; assay: In vitro resistance acquisition, serial passage; assay type: cell-based, Pseudomonas aeruginosa; conditions: SWF, sublethal (1/8 MIC) concentration, 7 days
Procedure: Serial passage of growth as a screen for resistant P. aeruginosa PAO1 was carried out for 7 days in SWF supplemented with sublethal (1/8 dilution from the MIC) concentrations of Ag, Te, and Ag—Te mixture. […] Strains of P. aeruginosa PAO1 were grown in sublethal (1/8th MIC) concentrations of Ag, Te or a mixture of the two antimicrobials, for 7 days.
The impact of the MBAs on antibiotic resistance was also tested. Serial passage of growth as a screen for resistant P. aeruginosa PAO1 was performed for 7 days in SWF supplemented with sublethal (1/8 dilution from the MIC) concentrations of Ag, Te, and Ag—Te mixture.

**Q.** For O=[N+]([O-])[O-].[Ag+] [Ag, silver nitrate], which “occurrence of resistance during serial passage” value is on record?
**A.** The value was “after two days”.

**Q.** O=[Te]([O-])[O-].[K+].[K+] [Te, potassium tellurite] was tested. Which “occurrence of resistance during serial passage” value did it give?
**A.** Its value is “after five days”.

test system: P. aeruginosa biofilm; assay: not given; assay type: cell-based, Pseudomonas aeruginosa; conditions: not given

**Q.** Which “Eradication of P. aeruginosa biofilm (MBEC)” value does the source give for O=S(=O)([O-])[O-].[Cu+2] [Cu, copper sulfate] here?
**A.** The value was 6.25 mM.

same assay, conditions: LB; in 24 h

**Q.** Which “Eradication of P. aeruginosa biofilm (MBEC)” value does the source give for O=[N+]([O-])[O-].[Ag+] [Ag, silver nitrate] here?
**A.** The value was 0.065 mM.

**Q.** For [Au+3].[Cl-].[Cl-].[Cl-].[Cl-] [Au, tetrachloroaurate], which “Eradication of P. aeruginosa biofilm (MBEC)” value is on record?
**A.** Its value is 0.25 mM.

**Q.** How did the “Eradication of P. aeruginosa biofilm (MBEC)” value turn out when O=[N+]([O-])[O-].O=[N+]([O-])[O-].O=[N+]([O-])[O-].[Ga+3] [Ga, gallium nitrate] was run?
**A.** Its value is 3 mM.

**Q.** O=[Se](O)O [Se, sodium selenite] was tested. Which “Eradication of P. aeruginosa biofilm (MBEC)” value did it give?
**A.** The value was over 50 mM.

**Q.** How did the “Eradication of P. aeruginosa biofilm (MBEC)” value turn out when O=[Te]([O-])[O-].[K+].[K+] [Te, potassium tellurite] was run?
**A.** The value was 0.5 mM.

same assay, conditions: MHB; in 24 h

**Q.** Which “Eradication of P. aeruginosa biofilm (MBEC)” value does the source give for O=[N+]([O-])[O-].[Ag+] [Ag, silver nitrate] here?
**A.** The value was 0.03 mM.

**Q.** Which “Eradication of P. aeruginosa biofilm (MBEC)” value does the source give for [Au+3].[Cl-].[Cl-].[Cl-].[Cl-] [Au, tetrachloroaurate] here?
**A.** The value was 0.25 mM.

**Q.** With O=[N+]([O-])[O-].O=[N+]([O-])[O-].O=[N+]([O-])[O-].[Ga+3] [Ga, gallium nitrate] as the compound, how does the “Eradication of P. aeruginosa biofilm (MBEC)” value read?
**A.** Its value is 3 mM.

**Q.** O=[Se](O)O [Se, sodium selenite] was tested. Which “Eradication of P. aeruginosa biofilm (MBEC)” value did it give?
**A.** The value was over 50 mM.

**Q.** How did the “Eradication of P. aeruginosa biofilm (MBEC)” value turn out when O=[Te]([O-])[O-].[K+].[K+] [Te, potassium tellurite] was run?
**A.** The value was 0.5 mM.

same assay, conditions: SWF; in 24 h

**Q.** O=[N+]([O-])[O-].[Ag+] [Ag, silver nitrate] was tested. Which “Eradication of P. aeruginosa biofilm (MBEC)” value did it give?
**A.** Its value is 0.5 mM.

**Q.** How did the “Eradication of P. aeruginosa biofilm (MBEC)” value turn out when [Au+3].[Cl-].[Cl-].[Cl-].[Cl-] [Au, tetrachloroaurate] was run?
**A.** Its value is 1 mM.

**Q.** O=[N+]([O-])[O-].O=[N+]([O-])[O-].O=[N+]([O-])[O-].[Ga+3] [Ga, gallium nitrate] was tested. Which “Eradication of P. aeruginosa biofilm (MBEC)” value did it give?
**A.** Its value is 12.5 mM.

**Q.** For O=[Se](O)O [Se, sodium selenite], which “Eradication of P. aeruginosa biofilm (MBEC)” value is on record?
**A.** Its value is over 50 mM.

**Q.** Which “Eradication of P. aeruginosa biofilm (MBEC)” value does the source give for O=[Te]([O-])[O-].[K+].[K+] [Te, potassium tellurite] here?
**A.** Its value is 0.5 mM.

test system: P. aeruginosa; assay: not given; assay type: cell-based, Pseudomonas aeruginosa; conditions: SWF; read after 2, 4 and 24 hours
From the text: For the MBC and recovery potency of bacteria. […] The last well that had no bacterial growth was defined as the MBC.

**Q.** With O=[N+]([O-])[O-].[Ag+] [Ag, silver nitrate] as the compound, how does the “recovery of bacteria in the same fresh media after treatment” value read?
**A.** Its value is “couldn't inhibit the recovery of bacteria”.

**Q.** With O=[Te]([O-])[O-].[K+].[K+] [Te, potassium tellurite] as the compound, how does the “recovery of bacteria in the same fresh media after treatment” value read?
**A.** Its value is “couldn't inhibit the recovery of bacteria”.

same assay, conditions: SWF; vs combination

**Q.** Which “dilution in which bacteria recovered when agent used alone” value does the source give for O=[N+]([O-])[O-].[Ag+] [Ag, silver nitrate] here?
**A.** The value was “three-fold higher dilution”.

**Q.** Which “dilution in which bacteria recovered when agent used alone” value does the source give for O=[Te]([O-])[O-].[K+].[K+] [Te, potassium tellurite] here?
**A.** Its value is “two-fold higher dilution”.

test system: 39 clinical isolates; assay: Antibiotic resistance of the clinical isolates; assay type: cell-based; conditions: out of 39 clinical isolates

**Q.** Which “clinical isolates resistant to the antibiotic” value does the source give for gentamicin here?
**A.** The value was 15 (38%) isolates (%).

test system: P. aeruginosa biofilm; assay: not given; assay type: cell-based, Pseudomonas aeruginosa; conditions: not given; remark: another data set of the same source

**Q.** Which “Inhibition of P. aeruginosa biofilm (MBIC)” value does the source give for O=S(=O)([O-])[O-].[Cu+2] [Cu, copper sulfate] here?
**A.** Its value is 8 mM.

same assay, conditions: LB; in 48 h

**Q.** With O=[N+]([O-])[O-].[Ag+] [Ag, silver nitrate] as the compound, how does the “Inhibition of P. aeruginosa biofilm (MBIC)” value read?
**A.** Its value is 0.125 mM.

**Q.** How did the “Inhibition of P. aeruginosa biofilm (MBIC)” value turn out when [Au+3].[Cl-].[Cl-].[Cl-].[Cl-] [Au, tetrachloroaurate] was run?
**A.** Its value is 0.5 mM.

**Q.** With O=[N+]([O-])[O-].O=[N+]([O-])[O-].O=[N+]([O-])[O-].[Ga+3] [Ga, gallium nitrate] as the compound, how does the “Inhibition of P. aeruginosa biofilm (MBIC)” value read?
**A.** The value was 12.5 mM.

**Q.** O=[Se](O)O [Se, sodium selenite] was tested. Which “Inhibition of P. aeruginosa biofilm (MBIC)” value did it give?
**A.** Its value is over 50 mM.

**Q.** Which “Inhibition of P. aeruginosa biofilm (MBIC)” value does the source give for O=[Te]([O-])[O-].[K+].[K+] [Te, potassium tellurite] here?
**A.** Its value is 0.5 mM.

same assay, conditions: MHB; in 48 h

**Q.** With O=[N+]([O-])[O-].[Ag+] [Ag, silver nitrate] as the compound, how does the “Inhibition of P. aeruginosa biofilm (MBIC)” value read?
**A.** Its value is 0.03 mM.

**Q.** Which “Inhibition of P. aeruginosa biofilm (MBIC)” value does the source give for [Au+3].[Cl-].[Cl-].[Cl-].[Cl-] [Au, tetrachloroaurate] here?
**A.** The value was 0.25 mM.

**Q.** With O=[N+]([O-])[O-].O=[N+]([O-])[O-].O=[N+]([O-])[O-].[Ga+3] [Ga, gallium nitrate] as the compound, how does the “Inhibition of P. aeruginosa biofilm (MBIC)” value read?
**A.** Its value is 12.5 mM.

**Q.** How did the “Inhibition of P. aeruginosa biofilm (MBIC)” value turn out when O=[Se](O)O [Se, sodium selenite] was run?
**A.** The value was over 50 mM.

**Q.** Which “Inhibition of P. aeruginosa biofilm (MBIC)” value does the source give for O=[Te]([O-])[O-].[K+].[K+] [Te, potassium tellurite] here?
**A.** Its value is 0.5 mM.

same assay, conditions: SWF; in 48 h

**Q.** How did the “Inhibition of P. aeruginosa biofilm (MBIC)” value turn out when O=[N+]([O-])[O-].[Ag+] [Ag, silver nitrate] was run?
**A.** The value was 0.25 mM.

**Q.** Which “Inhibition of P. aeruginosa biofilm (MBIC)” value does the source give for [Au+3].[Cl-].[Cl-].[Cl-].[Cl-] [Au, tetrachloroaurate] here?
**A.** Its value is 0.25 mM.

**Q.** O=[N+]([O-])[O-].O=[N+]([O-])[O-].O=[N+]([O-])[O-].[Ga+3] [Ga, gallium nitrate] was tested. Which “Inhibition of P. aeruginosa biofilm (MBIC)” value did it give?
**A.** The value was 25 mM.

**Q.** With O=[Se](O)O [Se, sodium selenite] as the compound, how does the “Inhibition of P. aeruginosa biofilm (MBIC)” value read?
**A.** The value was over 50 mM.

**Q.** O=[Te]([O-])[O-].[K+].[K+] [Te, potassium tellurite] was tested. Which “Inhibition of P. aeruginosa biofilm (MBIC)” value did it give?
**A.** The value was 0.5 mM.
